Columns and labels:
human TLR7 = human TLR7 (Homo sapiens (Human), UniProt Q9NYK1); assay: Agonistic activity of compounds on HEK-Blue hTLR7 cells (QUANTI-Blue reporter, OD620); assay type: cell-based; details: for Emax (OD620): OD620 at maximum activation effect
Protocol: • 1. HEK-Blue hTLR7 cells (Invivogen) were cultured in DMEM medium (Hyclone) containing 10% FBS heat-inactivated fetal bovine serum (Corning). On the day of detection, the cell state was observed under a microscope, the cells were collected and resuspended, and the cell concentration was adjusted after counting, 50 μL per well, the total amount of cells was 2×10^4, and the cells were inoculated in a 96-well plate. • 2. After the cells adhered to the wall overnight, 50 μL of the test compound at different concentrations was added into the well plate, so that the final concentrations were 100 μM, 33.3 μM, 11.11 μM, 3.70 μM, 1.23 μM, 0.41 μM, 0.14 μM, 0.05 μM, 0 μM, and the final concentration of DMSO was 1%. The compound was incubated with the cells in a 37° C., 5% CO2 incubator for 20 h. • 3. After the incubation, observation under microscope was performed to determine the maximum signal well, the states of the cells with the highest and lowest concentrations of the compound, and whether the compound will crystalize at high concentration. 10 μL of cell culture supermatant was taken and transferred to a new 96-well transparent plate, 90 μL of QUANTI-Blue (Invivogen) detection reagent was added to each well, and incubated at 37° C. for 3 h, and OD620 was read with a multifunctional microplate reader (BMG LABTECH). • 4. EC50 was calculated by fitting with Graphpad Prism software log(agonist) vs. response—Variable slope, and Emax was the (D620 at which the activation effect of the test compound reached the maximum.

human TLR8 = human TLR8 (Homo sapiens (Human), UniProt Q9NR97); assay: Agonistic activity of compounds on HEK-Blue hTLR8 cells (QUANTI-Blue reporter, OD620); assay type: cell-based; details: for Emax (OD620): OD620 at maximum activation effect
Sequence of human TLR8 (Q9NR97 27-1041): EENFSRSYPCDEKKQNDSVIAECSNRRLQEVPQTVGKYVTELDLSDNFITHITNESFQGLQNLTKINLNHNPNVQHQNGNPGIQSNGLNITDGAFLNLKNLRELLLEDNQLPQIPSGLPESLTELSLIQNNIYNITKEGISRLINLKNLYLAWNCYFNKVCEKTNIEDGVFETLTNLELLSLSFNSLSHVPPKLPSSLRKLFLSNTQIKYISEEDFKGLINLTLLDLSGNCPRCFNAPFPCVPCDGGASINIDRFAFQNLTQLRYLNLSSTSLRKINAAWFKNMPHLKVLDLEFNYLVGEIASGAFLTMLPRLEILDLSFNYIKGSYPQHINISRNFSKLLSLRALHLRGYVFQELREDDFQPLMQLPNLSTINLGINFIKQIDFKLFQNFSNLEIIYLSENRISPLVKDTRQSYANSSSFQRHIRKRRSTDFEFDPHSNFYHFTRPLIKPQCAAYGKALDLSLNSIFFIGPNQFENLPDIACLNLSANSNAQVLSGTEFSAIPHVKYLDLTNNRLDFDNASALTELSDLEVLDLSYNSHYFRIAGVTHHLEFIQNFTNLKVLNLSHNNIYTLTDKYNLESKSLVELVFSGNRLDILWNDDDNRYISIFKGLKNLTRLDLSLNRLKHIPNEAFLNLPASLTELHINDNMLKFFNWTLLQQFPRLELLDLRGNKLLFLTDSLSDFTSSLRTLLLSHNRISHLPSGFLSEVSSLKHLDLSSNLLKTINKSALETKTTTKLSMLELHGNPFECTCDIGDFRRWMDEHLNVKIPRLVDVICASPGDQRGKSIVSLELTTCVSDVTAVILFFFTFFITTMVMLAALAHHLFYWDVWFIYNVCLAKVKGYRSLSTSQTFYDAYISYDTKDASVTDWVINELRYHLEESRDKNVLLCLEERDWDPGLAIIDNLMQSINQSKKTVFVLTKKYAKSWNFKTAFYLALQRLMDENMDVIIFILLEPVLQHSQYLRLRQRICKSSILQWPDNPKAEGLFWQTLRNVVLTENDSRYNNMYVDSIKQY
Protocol: • 1. HEK-Blue hTLR8 cells (Invivogen) were cultured in DMEM medium (Hyclone) containing 10% FBS heat-inactivated fetal bovine serum (Corning). On the day of detection, the cell state was observed under a microscope, the cells were collected and resuspended, and the cell concentration was adjusted after counting, 50 μL per well, the total amount of cells was 2×10^4, and the cells were inoculated in a 96-well plate. • 2. After the cells adhered to the wall overnight, 50 μL of the test compound at different concentrations was added to the well plate, so that the final concentrations were 100 μM, 25 μM, 6.25 μM, 1.56 μM, 0.39 μM, 0.10 μM, 0.02 μM, 0.006 μM, 0 μM, or 100 μM, 33.3 μM, 11.11 μM, 3.70 μM, 1.23 μM, 0.41 μM, 0.14 μM, 0.05 μM, 0 μM, and the final concentration of DMSO was 1%. The compound was incubated with the cells in a 37° C., 5% CO2 incubator for 20 hours. • 3. After the incubation, observation was performed under microscope to determine the maximum signal well, the state of the cells with the highest and lowest concentrations of the compound, and whether the compound will crystalize at high concentration. 10 μL of cell culture supernatant was transferred to a new 96-well transparent plate, added with 90 μL of QUANTI-Blue (Invivogen) detection reagent to each well, incubated at 37° C. for 3 hours, and OD620 was read with a multifunctional microplate reader (BMG LABTECH). • 4. EC50 was calculated by fitting with Graphpad Prism software log(agonist) vs. Response—Variable slope, and Emax was the OD620 at which the activation effect of the test compound reached the maximum.

Sequence of human TLR7 (Q9NYK1 27-1049): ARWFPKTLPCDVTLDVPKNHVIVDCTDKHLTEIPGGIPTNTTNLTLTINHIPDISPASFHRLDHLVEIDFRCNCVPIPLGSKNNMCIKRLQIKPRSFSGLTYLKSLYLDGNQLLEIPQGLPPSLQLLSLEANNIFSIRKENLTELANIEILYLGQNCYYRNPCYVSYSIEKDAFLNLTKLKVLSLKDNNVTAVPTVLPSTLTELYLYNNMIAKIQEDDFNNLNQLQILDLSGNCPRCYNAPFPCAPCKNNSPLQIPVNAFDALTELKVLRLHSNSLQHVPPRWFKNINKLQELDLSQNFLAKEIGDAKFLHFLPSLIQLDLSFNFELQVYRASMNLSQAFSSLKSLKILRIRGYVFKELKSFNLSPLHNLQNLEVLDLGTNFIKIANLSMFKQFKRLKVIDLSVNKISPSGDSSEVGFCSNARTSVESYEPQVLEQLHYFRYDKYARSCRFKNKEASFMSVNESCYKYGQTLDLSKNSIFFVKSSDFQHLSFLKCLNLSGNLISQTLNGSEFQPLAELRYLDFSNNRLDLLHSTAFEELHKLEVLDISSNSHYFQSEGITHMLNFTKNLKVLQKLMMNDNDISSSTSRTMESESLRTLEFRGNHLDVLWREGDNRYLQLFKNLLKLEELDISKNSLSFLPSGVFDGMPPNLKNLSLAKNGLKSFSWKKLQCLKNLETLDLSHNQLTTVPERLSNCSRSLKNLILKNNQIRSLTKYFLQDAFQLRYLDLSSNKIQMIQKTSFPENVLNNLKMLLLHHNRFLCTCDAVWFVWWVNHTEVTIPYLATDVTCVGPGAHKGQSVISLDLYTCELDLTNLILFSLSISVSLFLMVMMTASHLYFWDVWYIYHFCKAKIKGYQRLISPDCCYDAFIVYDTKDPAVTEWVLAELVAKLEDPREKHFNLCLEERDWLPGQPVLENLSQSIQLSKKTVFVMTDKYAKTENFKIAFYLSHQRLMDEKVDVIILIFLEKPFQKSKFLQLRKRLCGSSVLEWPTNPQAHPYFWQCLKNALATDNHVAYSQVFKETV

Row | Compound | activation effect on human TLR7 (in words) (human TLR7) | Emax (OD620) (human TLR7) | activation effect on human TLR8 (in words) (human TLR8) | Emax (OD620) (human TLR8)
1 | CCCCc1nc2c(N)nc3cc(C)sc3c2n1CCCCN [Compound 1, 1-(4-aminobutyl)-2-butyl-7-methyl-1H-imidazo[4,5-d]thieno[3,2-b]pyridine-4-amine] | strong activation effect | 1.36 OD620 | strong activation effect | 1.43 OD620
2 | CCCCc1nc2c(N)nc3ccsc3c2n1CC1CCN(C)CC1 [Compound 27, 2-butyl-1-[(1-methylhexahydropyridin-4-yl)methyl]thieno[3,2-b]imidazo[4,5-d]pyridine-4-amine] | strong activation effect | 1.59 OD620 | strong activation effect | 0.84 OD620
3 | CCCCc1nc2c(N)nc3ccsc3c2n1CCCCN [Compound 2, 1-(4-aminobutyl)-2-butyl-1H-imidazo[4,5-d]thieno[3,2-b]pyridine-4-amine] | strong activation effect | 1.36 OD620 | strong activation effect | 1.37 OD620
4 | CCCCc1nc2c(N)nc3cc(C)sc3c2n1CC1CCNCC1 [Compound 3, 2-butyl-7-methyl-1-(piperidin-4-ylmethyl)-1H-imidazo[4,5-d]thieno[3,2-b]pyridine-4-amine] | strong activation effect | 1.43 OD620 | strong activation effect | 1.86 OD620
5 | CCCCc1nc2c(N)nc3cc(C4CCNCC4)sc3c2n1CC1CCOCC1 [Compound 33, 2-butyl-7-(hexahydropyridin-4-yl)-1-(3,4,5,6-tetrahydro-2H-pyran-4-ylmethyl)thieno[3,2-b]imidazo[4,5-d]pyridine-4-amine] | strong activation effect | 1.46 OD620 | strong activation effect | 0.67 OD620
6 | CCCCc1nc2c(N)nc3cc(C4CCN(C)CC4)sc3c2[nH]1 [Compound 6, 2-butyl-7-(1-methylpiperidin-4-yl)-1H-imidazo[4,5-d]thieno[3,2-b]pyridine-4-amine] | strong activation effect | 1.08 OD620 | strong activation effect | 1.11 OD620

From patent US20250257071A9, “TRICYCLIC COMPOUND, METHOD FOR PREPARING SAME, AND USE THEREOF” (Sichuan Kelun-Biotech Biopharmaceutical Co., Ltd., priority 2021, published 2025)
